Data taken from article doi:10.1101/2020.06.11.145995v1 (biorxiv, 2020).
Where two headings read alike, the source gives them in different places.

Tests used:
Assay in all cases: biochemical
[1] = target: JAK2(JH1domain-catalytic) (Homo sapiens, UniProt O60674)
MYO3B = MYO3B (Homo sapiens, UniProt Q8WXR4)
BMPR1A = BMPR1A (Homo sapiens, UniProt P36894)
CHEK1 = CHEK1 (Homo sapiens, UniProt O14757)
AMPK-alpha1 = AMPK-alpha1 (Homo sapiens, UniProt Q13131)
KIT = KIT (Homo sapiens, UniProt P10721)
EGFR(L858R) = EGFR(L858R) (Homo sapiens, UniProt P00533, L858R)
GSK3A = GSK3A (Homo sapiens, UniProt P49840)
GSK3A, sequence (P49840 whole entry): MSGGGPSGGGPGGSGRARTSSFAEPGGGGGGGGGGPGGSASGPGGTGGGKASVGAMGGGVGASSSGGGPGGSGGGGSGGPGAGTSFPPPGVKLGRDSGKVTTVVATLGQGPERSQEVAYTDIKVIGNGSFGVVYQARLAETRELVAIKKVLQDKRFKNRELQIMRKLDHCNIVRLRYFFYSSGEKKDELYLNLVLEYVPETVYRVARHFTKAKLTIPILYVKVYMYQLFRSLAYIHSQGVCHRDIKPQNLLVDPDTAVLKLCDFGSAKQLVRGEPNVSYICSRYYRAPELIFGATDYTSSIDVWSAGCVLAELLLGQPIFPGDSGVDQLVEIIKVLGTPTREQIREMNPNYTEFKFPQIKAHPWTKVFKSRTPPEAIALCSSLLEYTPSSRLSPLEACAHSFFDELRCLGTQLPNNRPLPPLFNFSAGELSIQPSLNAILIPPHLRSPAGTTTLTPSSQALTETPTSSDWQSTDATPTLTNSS

FLT3(R834Q) = FLT3(R834Q) (Homo sapiens, UniProt P36888, R834Q)
CDKL3 = CDKL3 (Homo sapiens, UniProt Q8IVW4)
MLK1 = MLK1 (Homo sapiens, UniProt P80192)
KIT(L576P) = KIT(L576P) (Homo sapiens, UniProt P10721, L576P)
MAP3K15 = MAP3K15 (Homo sapiens, UniProt Q6ZN16)
BIKE = BIKE (Homo sapiens, UniProt Q9NSY1)
BIKE, sequence (Q9NSY1 whole entry): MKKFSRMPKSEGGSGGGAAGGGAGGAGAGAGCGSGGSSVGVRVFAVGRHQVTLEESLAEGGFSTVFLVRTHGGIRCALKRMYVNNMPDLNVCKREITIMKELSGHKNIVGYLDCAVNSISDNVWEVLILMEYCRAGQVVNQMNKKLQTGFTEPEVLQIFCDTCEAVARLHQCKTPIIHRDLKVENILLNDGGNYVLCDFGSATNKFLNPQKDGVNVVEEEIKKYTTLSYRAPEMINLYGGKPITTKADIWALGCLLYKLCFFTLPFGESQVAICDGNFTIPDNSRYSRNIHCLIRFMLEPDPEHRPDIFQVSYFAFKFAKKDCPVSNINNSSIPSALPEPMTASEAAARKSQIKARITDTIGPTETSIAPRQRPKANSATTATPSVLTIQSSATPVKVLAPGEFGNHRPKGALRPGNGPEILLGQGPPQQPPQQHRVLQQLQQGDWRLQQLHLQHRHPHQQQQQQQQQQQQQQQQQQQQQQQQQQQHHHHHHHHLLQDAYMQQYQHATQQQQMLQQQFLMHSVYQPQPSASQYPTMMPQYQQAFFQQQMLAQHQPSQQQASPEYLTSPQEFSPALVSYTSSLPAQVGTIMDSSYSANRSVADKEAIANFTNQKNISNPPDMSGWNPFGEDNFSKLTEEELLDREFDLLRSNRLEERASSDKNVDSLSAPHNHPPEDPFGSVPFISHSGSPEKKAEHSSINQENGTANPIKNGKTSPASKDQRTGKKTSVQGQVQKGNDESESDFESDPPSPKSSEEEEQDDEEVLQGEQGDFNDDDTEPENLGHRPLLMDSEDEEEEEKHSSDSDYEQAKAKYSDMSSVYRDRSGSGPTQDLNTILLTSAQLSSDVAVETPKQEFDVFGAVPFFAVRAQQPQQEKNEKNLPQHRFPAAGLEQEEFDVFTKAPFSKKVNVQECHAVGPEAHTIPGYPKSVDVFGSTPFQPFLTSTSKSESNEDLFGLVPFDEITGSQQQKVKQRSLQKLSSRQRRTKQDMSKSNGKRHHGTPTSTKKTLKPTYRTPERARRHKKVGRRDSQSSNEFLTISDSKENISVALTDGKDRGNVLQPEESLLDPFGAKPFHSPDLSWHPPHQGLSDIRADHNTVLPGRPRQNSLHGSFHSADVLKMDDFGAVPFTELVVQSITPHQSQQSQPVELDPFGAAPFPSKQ

HIPK3 = HIPK3 (Homo sapiens, UniProt Q9H422)
HIPK3, sequence (Q9H422 whole entry): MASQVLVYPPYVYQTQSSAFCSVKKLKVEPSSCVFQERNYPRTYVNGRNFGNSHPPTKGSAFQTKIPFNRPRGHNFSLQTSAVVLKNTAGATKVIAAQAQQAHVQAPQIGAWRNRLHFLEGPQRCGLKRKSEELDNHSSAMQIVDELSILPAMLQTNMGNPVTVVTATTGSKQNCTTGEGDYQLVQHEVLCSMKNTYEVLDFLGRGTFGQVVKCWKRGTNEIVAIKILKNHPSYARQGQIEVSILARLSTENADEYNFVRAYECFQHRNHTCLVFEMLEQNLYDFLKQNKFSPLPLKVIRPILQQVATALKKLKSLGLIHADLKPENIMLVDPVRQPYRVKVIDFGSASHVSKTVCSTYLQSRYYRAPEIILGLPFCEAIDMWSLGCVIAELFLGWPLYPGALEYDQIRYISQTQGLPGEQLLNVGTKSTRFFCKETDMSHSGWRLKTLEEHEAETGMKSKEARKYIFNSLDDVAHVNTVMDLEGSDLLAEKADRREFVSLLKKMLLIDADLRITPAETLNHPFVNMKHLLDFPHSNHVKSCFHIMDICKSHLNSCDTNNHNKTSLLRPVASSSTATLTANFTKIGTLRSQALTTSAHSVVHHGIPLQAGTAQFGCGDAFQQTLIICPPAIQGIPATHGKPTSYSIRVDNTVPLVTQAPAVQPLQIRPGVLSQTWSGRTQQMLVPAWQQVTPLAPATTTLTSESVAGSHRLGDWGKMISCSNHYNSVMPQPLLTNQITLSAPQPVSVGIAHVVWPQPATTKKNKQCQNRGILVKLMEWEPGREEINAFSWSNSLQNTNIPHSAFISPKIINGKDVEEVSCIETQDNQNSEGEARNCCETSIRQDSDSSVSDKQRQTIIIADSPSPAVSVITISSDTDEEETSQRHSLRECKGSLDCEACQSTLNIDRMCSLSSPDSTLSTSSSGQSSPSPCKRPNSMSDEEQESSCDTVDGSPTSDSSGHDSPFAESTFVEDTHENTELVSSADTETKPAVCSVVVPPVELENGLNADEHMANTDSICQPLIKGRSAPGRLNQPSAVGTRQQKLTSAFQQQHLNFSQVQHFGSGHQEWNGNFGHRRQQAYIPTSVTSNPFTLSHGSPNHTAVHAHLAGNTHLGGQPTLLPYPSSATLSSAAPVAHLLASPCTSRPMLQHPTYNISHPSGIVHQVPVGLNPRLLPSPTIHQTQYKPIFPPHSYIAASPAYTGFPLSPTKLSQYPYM

LCK = LCK (Homo sapiens, UniProt P06239)
ABL1-nonphosphorylated = ABL1-nonphosphorylated (Homo sapiens, UniProt P00519)
[2] = target: JAK1(JH2domain-pseudokinase) (Homo sapiens, UniProt P23458)
[3] = target: ABL1(H396P)-nonphosphorylated (Homo sapiens, UniProt P00519, H396P)
TBK1 = TBK1 (Homo sapiens, UniProt Q9UHD2)
TBK1, sequence (Q9UHD2 whole entry): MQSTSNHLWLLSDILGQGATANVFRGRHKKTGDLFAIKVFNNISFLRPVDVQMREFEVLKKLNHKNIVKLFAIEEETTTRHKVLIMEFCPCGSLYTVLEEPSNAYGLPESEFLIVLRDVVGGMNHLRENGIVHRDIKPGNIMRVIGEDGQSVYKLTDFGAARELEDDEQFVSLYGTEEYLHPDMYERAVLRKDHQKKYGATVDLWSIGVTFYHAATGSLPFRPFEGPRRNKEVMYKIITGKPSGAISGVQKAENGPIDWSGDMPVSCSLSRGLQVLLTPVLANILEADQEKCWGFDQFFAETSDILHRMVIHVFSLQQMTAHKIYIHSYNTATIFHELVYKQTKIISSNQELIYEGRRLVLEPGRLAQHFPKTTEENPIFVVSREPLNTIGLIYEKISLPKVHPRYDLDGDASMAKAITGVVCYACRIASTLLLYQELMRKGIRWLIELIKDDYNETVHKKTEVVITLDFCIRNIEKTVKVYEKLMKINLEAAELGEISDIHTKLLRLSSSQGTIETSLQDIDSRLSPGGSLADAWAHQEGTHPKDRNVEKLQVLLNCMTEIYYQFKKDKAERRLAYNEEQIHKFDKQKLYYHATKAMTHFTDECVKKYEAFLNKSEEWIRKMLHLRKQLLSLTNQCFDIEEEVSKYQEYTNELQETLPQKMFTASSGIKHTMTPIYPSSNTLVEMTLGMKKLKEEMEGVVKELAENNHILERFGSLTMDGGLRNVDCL

SBK1 = SBK1 (Homo sapiens, UniProt Q52WX2)
SBK1, sequence (Q52WX2 whole entry): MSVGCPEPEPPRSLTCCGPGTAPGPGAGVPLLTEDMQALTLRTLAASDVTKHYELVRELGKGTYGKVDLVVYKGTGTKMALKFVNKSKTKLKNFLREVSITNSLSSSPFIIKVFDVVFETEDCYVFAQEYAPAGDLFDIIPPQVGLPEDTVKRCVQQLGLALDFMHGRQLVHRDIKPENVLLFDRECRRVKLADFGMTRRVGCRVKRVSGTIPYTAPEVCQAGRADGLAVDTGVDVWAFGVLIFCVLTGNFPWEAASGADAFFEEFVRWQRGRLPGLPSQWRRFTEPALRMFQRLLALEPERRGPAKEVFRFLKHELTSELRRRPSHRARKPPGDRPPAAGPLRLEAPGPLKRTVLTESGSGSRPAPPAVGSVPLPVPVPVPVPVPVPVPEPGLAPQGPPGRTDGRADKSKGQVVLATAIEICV

PLK3 = PLK3 (Homo sapiens, UniProt Q9H4B4)
PDGFRA = PDGFRA (Homo sapiens, UniProt P16234)
PDGFRA, sequence (P16234 whole entry): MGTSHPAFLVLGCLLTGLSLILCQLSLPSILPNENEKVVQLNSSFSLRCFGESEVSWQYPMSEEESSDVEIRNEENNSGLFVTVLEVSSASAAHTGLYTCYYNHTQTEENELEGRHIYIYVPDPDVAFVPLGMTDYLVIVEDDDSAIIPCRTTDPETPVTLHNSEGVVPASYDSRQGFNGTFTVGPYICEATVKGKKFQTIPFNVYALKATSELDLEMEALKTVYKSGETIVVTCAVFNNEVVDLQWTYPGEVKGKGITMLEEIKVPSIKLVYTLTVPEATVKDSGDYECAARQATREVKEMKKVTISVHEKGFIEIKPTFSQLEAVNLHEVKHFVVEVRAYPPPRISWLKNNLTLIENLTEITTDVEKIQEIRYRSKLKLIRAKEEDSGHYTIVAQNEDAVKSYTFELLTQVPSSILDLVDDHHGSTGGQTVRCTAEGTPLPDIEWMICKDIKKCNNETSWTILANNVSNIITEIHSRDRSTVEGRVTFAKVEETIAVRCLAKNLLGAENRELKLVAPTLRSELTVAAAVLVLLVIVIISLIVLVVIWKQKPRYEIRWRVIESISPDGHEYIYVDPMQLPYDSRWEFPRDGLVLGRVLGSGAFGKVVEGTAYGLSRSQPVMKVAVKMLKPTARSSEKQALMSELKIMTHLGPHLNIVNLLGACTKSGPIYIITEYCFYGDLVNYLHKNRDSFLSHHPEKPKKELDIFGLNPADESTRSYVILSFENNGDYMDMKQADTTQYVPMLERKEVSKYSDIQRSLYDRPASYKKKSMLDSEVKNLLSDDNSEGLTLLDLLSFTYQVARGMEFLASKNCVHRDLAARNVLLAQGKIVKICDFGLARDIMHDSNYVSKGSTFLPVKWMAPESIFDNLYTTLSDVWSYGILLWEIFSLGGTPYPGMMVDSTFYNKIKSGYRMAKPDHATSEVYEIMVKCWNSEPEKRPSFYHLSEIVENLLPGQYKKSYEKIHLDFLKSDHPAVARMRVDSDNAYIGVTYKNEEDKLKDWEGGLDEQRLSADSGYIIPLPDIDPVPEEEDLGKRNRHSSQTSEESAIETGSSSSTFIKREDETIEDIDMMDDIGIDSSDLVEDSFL

STK16 = STK16 (Homo sapiens, UniProt O75716)
GCN2(Kin.Dom.2,S808G) = GCN2(Kin.Dom.2,S808G) (Homo sapiens, UniProt Q9P2K8, S808G)
[4] = target: ABL1(T315I)-phosphorylated (Homo sapiens, UniProt P00519, T315I)
KIT(V559D,V654A) = KIT(V559D,V654A) (Homo sapiens, UniProt P10721, V559D/V654A)
[5] = target: JAK3(JH1domain-catalytic) (Homo sapiens, UniProt P52333)
[6] = read-out: CPT-1-70-1 (1uM) % control
[7] = read-out: CPT-1-70-1 (1μM) % control
[8] = read-out: HYJ-2-002-1 (1uM) % control
[9] = read-out: HYJ-2-002-1 (1μM) % control

## CN1CCN(c2ccc(Nc3nc(Oc4ccc(NC(=O)CCl)cc4)c4cc[nH]c4n3)cc2)CC1 [CPT1-70-1]
[1]; [6]
  remaining activity at 1 µM: 1.2%
MYO3B; [6]
  remaining activity at 1 µM: 100%
BMPR1A; [6]
  remaining activity at 1 µM: 100%
CHEK1; [6]
  remaining activity at 1 µM: 92%
AMPK-alpha1; [6]
  remaining activity at 1 µM: 32%
KIT; [6]
  remaining activity at 1 µM: 20%
EGFR(L858R); [6]
  remaining activity at 1 µM: 22%
GSK3A; [6]
  remaining activity at 1 µM: 100%
FLT3(R834Q); [6]
  remaining activity at 1 µM: 51%
CDKL3; [6]
  remaining activity at 1 µM: 100%
MLK1; [6]
  remaining activity at 1 µM: 9%
KIT(L576P); [6]
  remaining activity at 1 µM: 8.9%
MAP3K15; [6]
  remaining activity at 1 µM: 100%
BIKE; [6]
  remaining activity at 1 µM: 18%
HIPK3; [6]
  remaining activity at 1 µM: 74%
LCK; [6]
  remaining activity at 1 µM: 32%
ABL1-nonphosphorylated; [6]
  remaining activity at 1 µM: 25%
[2]; [6]
  remaining activity at 1 µM: 0.75%
[3]; [6]
  remaining activity at 1 µM: 7.2%
TBK1; [7]
  remaining activity at 1 µM: 43%
SBK1; [7]
  remaining activity at 1 µM: 10%
PLK3; [7]
  remaining activity at 1 µM: 100%
PDGFRA; [7]
  remaining activity at 1 µM: 64%
STK16; [7]
  remaining activity at 1 µM: 0.75%
GCN2(Kin.Dom.2,S808G); [6]
  remaining activity at 1 µM: 13%
[4]; [6]
  remaining activity at 1 µM: 19%
KIT(V559D,V654A); [6]
  remaining activity at 1 µM: 100%
[5]; [6]
  remaining activity at 1 µM: 0%

## CCN1CCN(Cc2ccc(NC(=O)c3ccc(C)c(CCc4cnc5[nH]ccc5c4OC)c3)cc2C(F)(F)F)CC1 [HYJ-2-002-1]
[1]; [8]
  remaining activity at 1 µM: 57%
MYO3B; [8]
  remaining activity at 1 µM: 49%
BMPR1A; [8]
  remaining activity at 1 µM: 100%
CHEK1; [8]
  remaining activity at 1 µM: 100%
AMPK-alpha1; [8]
  remaining activity at 1 µM: 87%
KIT; [8]
  remaining activity at 1 µM: 0%
EGFR(L858R); [8]
  remaining activity at 1 µM: 3.2%
GSK3A; [8]
  remaining activity at 1 µM: 78%
FLT3(R834Q); [8]
  remaining activity at 1 µM: 44%
CDKL3; [8]
  remaining activity at 1 µM: 34%
MLK1; [8]
  remaining activity at 1 µM: 100%
KIT(L576P); [8]
  remaining activity at 1 µM: 82%
MAP3K15; [8]
  remaining activity at 1 µM: 100%
BIKE; [8]
  remaining activity at 1 µM: 96%
HIPK3; [8]
  remaining activity at 1 µM: 55%
LCK; [8]
  remaining activity at 1 µM: 1.1%
ABL1-nonphosphorylated; [8]
  remaining activity at 1 µM: 0.05%
[2]; [8]
  remaining activity at 1 µM: 93%
[3]; [8]
  remaining activity at 1 µM: 0%
TBK1; [9]
  remaining activity at 1 µM: 100%
SBK1; [9]
  remaining activity at 1 µM: 93%
PLK3; [9]
  remaining activity at 1 µM: 100%
PDGFRA; [9]
  remaining activity at 1 µM: 0.65%
STK16; [9]
  remaining activity at 1 µM: 80%
GCN2(Kin.Dom.2,S808G); [8]
  remaining activity at 1 µM: 14%
[4]; [8]
  remaining activity at 1 µM: 0.75%
KIT(V559D,V654A); [8]
  remaining activity at 1 µM: 28%
[5]; [8]
  remaining activity at 1 µM: 2.4%
